# Laboratory results reported in patent US9732119B2, “Immunomodulators” (BRISTOL-MYERS SQUIBB COMPANY, priority 2014, dated 2017).
# Positions of bridges follow the written chain, without caps; N, C: chain ends. Non-standard residues stand in square brackets, D forms with d. Residues, ends and D or L forms follow the SMILES beside them. Trp(1-CH2COOH) = N[C@@H](Cc1cn(CC(=O)O)c2ccccc12)C(=O)O; Phe(4-F) = N[C@@H](Cc1ccc(F)cc1)C(=O)O; Phe(4-Me) = Cc1ccc(C[C@H](N)C(=O)O)cc1; Hyp = O=C(O)[C@@H]1C[C@@H](O)CN1; Aad = N[C@@H](CCCC(=O)O)C(=O)O; NMeNle = CCCC[C@H](NC)C(=O)O; Pip = O=C(O)[C@@H]1CCCCN1; Orn = NCCC[C@H](N)C(=O)O; Dab = NCC[C@H](N)C(=O)O; Dap = NC[C@H](N)C(=O)O
# Target: T1, PD-1-Ig binding to PD-L1-TVMV-His (PD-L1-His) (Homo sapiens, UniProt Q9NZQ7)
# T1 construct: hPDL1(19-239)-TVMV-His; made in house; host or cells: HEK293T cells
# T1 sequence (Q9NZQ7 with tags, fused parts or gaps): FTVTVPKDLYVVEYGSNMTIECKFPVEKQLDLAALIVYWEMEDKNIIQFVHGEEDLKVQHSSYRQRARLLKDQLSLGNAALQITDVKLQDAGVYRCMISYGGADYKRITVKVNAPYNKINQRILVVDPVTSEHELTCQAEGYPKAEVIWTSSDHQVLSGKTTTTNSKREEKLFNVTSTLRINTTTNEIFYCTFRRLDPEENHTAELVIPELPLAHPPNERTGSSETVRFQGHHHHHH
# Experiment: PD-1/PD-L1 Homogenous Time-Resolved Fluorescence (HTRF) binding assay
# Conditions: PD-1-Ig (20 nM) / PD-L1-His (10 nM); range classes
# In short: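 HTRF competition: compound pre-incubated 15 min with PD-L1-His (10 nM final), then PD-1-Ig (20 nM final) added for 15 min in dPBS, 0.1% BSA, 0.05% Tween-20. Detection with Eu-cryptate anti-Ig (1 nM) and APC anti-His (20 nM) antibodies.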
row,IC50 [nM],Structure (SMILES)
1,10 to 99,CCCC[C@H]1C(=O)N(C)[C@@H](CCCC)C(=O)N[C@@H](CC(C)C)C(=O)NCCC[C@H](N)C(=O)N[C@@H](Cc2ccc(F)cc2)C(=O)N2CCCC[C@H]2C(=O)N[C@@H](CC(N)=O)C(=O)N2CCC[C@H]2C(=O)N[C@@H](CN)C(=O)N[C@@H](CCC(=O)O)C(=O)N2C[C@H](O)C[C@H]2C(=O)N[C@@H](Cc2c[nH]c3ccccc23)C(=O)N[C@@H](CCN)C(=O)N[C@@H](Cc2cn(CC(=O)O)c3ccccc23)C(=O)N1C [Example 10548] (H-[Orn][Phe(4-F)][Pip]NP[Dap]E[Hyp]W[Dab][Trp(1-CH2COOH)][NMeNle][NMeNle]L; lactam 1-C)
2,10 to 99,CCCC[C@H]1C(=O)N(C)[C@@H](CCCC)C(=O)N[C@@H](CC(C)C)C(=O)NCCC[C@H](N)C(=O)N[C@@H](Cc2ccc(O)cc2)C(=O)N2CCCC[C@H]2C(=O)N[C@@H](CC(N)=O)C(=O)N2CCC[C@H]2C(=O)N[C@@H](CN)C(=O)N[C@@H](CCC(=O)O)C(=O)N2C[C@H](O)C[C@H]2C(=O)N[C@@H](Cc2c[nH]c3ccccc23)C(=O)N[C@@H](CCN)C(=O)N[C@@H](Cc2cn(CC(=O)O)c3ccccc23)C(=O)N1C [Example 10549] (H-[Orn]Y[Pip]NP[Dap]E[Hyp]W[Dab][Trp(1-CH2COOH)][NMeNle][NMeNle]L; lactam 1-C)
3,10 to 99,CCCC[C@H]1C(=O)N(C)[C@@H](CCCC)C(=O)N[C@@H](CC(C)C)C(=O)NCCC[C@H](N)C(=O)N[C@@H](Cc2ccc(F)cc2)C(=O)N2CCCC[C@H]2C(=O)N[C@@H](CC(N)=O)C(=O)N2CCC[C@H]2C(=O)N[C@@H](CN)C(=O)N[C@@H](CC(C)C)C(=O)N2C[C@H](O)C[C@H]2C(=O)N[C@@H](Cc2c[nH]c3ccccc23)C(=O)N[C@@H](CCN)C(=O)N[C@@H](Cc2cn(CC(=O)O)c3ccccc23)C(=O)N1C [Example 10550] (H-[Orn][Phe(4-F)][Pip]NP[Dap]L[Hyp]W[Dab][Trp(1-CH2COOH)][NMeNle][NMeNle]L; lactam 1-C)
4,1 to 9.9,CCCC[C@H]1C(=O)N(C)[C@@H](CCCC)C(=O)N[C@@H](CC(C)C)C(=O)NCCC[C@H](N)C(=O)N[C@@H](Cc2ccc(OC)cc2)C(=O)N2CCCC[C@H]2C(=O)N[C@@H](CC(N)=O)C(=O)N2CCC[C@H]2C(=O)N[C@@H](CN)C(=O)N[C@@H](CCC(=O)O)C(=O)N2C[C@H](O)C[C@H]2C(=O)N[C@@H](Cc2c[nH]c3ccccc23)C(=O)N[C@@H](CCN)C(=O)N[C@@H](Cc2cn(CC(=O)O)c3ccccc23)C(=O)N1C [Example 10551] (H-[Orn]Y(Me)[Pip]NP[Dap]E[Hyp]W[Dab][Trp(1-CH2COOH)][NMeNle][NMeNle]L; lactam 1-C)
5,1 to 9.9,CCCC[C@H]1C(=O)N(C)[C@@H](CCCC)C(=O)N[C@@H](CC(C)C)C(=O)N[C@H](C(N)=O)CCCC(=O)N[C@@H](Cc2ccc(O)cc2)C(=O)N2CCCC[C@H]2C(=O)N[C@@H](CC(=O)O)C(=O)N2CCC[C@H]2C(=O)N[C@@H](CN)C(=O)N[C@@H](CC(C)C)C(=O)N2C[C@H](O)C[C@H]2C(=O)N[C@@H](Cc2c[nH]c3ccccc23)C(=O)N[C@@H](CCN)C(=O)N[C@@H](Cc2cn(CC(=O)O)c3ccccc23)C(=O)N1C [Example 10552] (Y[Pip]DP[Dap]L[Hyp]W[Dab][Trp(1-CH2COOH)][NMeNle][NMeNle]L[Aad]-NH2; lactam N-14)
6,10 to 99,CCCC[C@H]1C(=O)N(C)[C@@H](CCCC)C(=O)N[C@@H](CC(C)C)C(=O)N[C@H](C(N)=O)CCCC(=O)N[C@@H](Cc2ccc(C)cc2)C(=O)N2CCCC[C@H]2C(=O)N[C@@H](CC(=O)O)C(=O)N2CCC[C@H]2C(=O)N[C@@H](CN)C(=O)N[C@@H](CC(C)C)C(=O)N2C[C@H](O)C[C@H]2C(=O)N[C@@H](Cc2c[nH]c3ccccc23)C(=O)N[C@@H](CCN)C(=O)N[C@@H](Cc2cn(CC(=O)O)c3ccccc23)C(=O)N1C [Example 10553] ([Phe(4-Me)][Pip]DP[Dap]L[Hyp]W[Dab][Trp(1-CH2COOH)][NMeNle][NMeNle]L[Aad]-NH2; lactam N-14)
